From patent US8865894B2, “Oxazolidin-2-one compounds and uses thereof” (Novartis AG, priority 2012, dated 2014)

What was measured:
[1] = target: T1, human PI3Kalpha p110 catalytic subunit (Rat-1 pBABEpuro Myr-HA-hp110alpha) (Homo sapiens, UniProt P42336); assay: Cellular assay PI3Kalpha (p-Akt(S473) SureFire, Rat-1_PI3Kalpha cells); format: cell-based; settings: 1 h compound treatment, read-out: Rat1-PI3Ka/ IC50
T1 construct: Myr (myristoylation signal) (N); HA (N); expressed in transfected cells; host or cells: Rat-1
Description: AlphaScreen (Amplified Luminescent Proximity Homogeneous Assay, ALPHA, Perkin Elmer) is a non-radioactive bead-based proximity assay technology to study biomolecular interactions in a homogenous microtiter plate format. The brand name SureFire denotes AlphaScreen assays that are adapted to quantify the phosphorylation of endogenous cellular proteins in cell lysates, by using matched antibody pairs, which consist of an anti-phospho-kinase and an anti-kinase antibody. The assay allows characterization of kinase signaling in cells as well as measurement of kinase inhibitor effects. The AlphaScreen technology provides several advantages over standard assay techniques such as ELISA, as it avoids time-consuming washing procedures and reduces plate handling. Furthermore, it is miniaturizable at least to a 384-well format and provides sensitivity down to the femtomolar range, dependent on the affinity of the antibodies included in the individual AlphaScreen SureFire assay kit. High sensitivity is reached by an intrinsic amplification mechanism, which involves production of singlet oxygen molecules. SureFire assay kits are commercially available for specific targets and include pairs of validated antibodies (PerkinElmer). This report describes common procedures applied for AlphaScreen SureFire assays and respective semi-automated steps for routine kinase inhibitor profiling in cell-based assays.
The Rat-1 cell lines stably overexpressing activated PI3K class I isoforms Rat-1 pBABEpuro Myr-HA-hp110 delta (Rat-1_PI3Kdelta) and Rat-1 pBABEpuro Myr-HA-hp110alpha (Rat-1_PI3Kalpha) and Rat-1 pBABEpuro Myr-HA-hp110 beta (Rat-1_PI3beta) were prepared as described (Maira S M, Stauffer F, Brueggen J, Furet P, Schnell C, Fritsch C, Brachmann S, Chène P, de Pover A, Schoemaker K, Fabbro D, Gabriel D, Simonen M, Murphy L, Finan P, Sellers W, García-Echeverría C (2008), Mol Cancer Ther. 7:1851-63 and Maira S M, Pecchi S, Brueggen J, Huh K, Schnell C, Fritsch C, Nagel T, Wiesmann M, Brachmann S, Dorsch M, Chène P, Schoemaker K, De Pover A, Menezes D, Fabbro D, Sellers W, García-Echeverría C, Voliva C F (2011), Mol. Cancer Ther., accepted). All cell lines were cultivated in complete growth medium (DMEM high glucose, 10% (v/v) fetal bovine serum, 1% (v/v) MEM NEAA, 10 mM HEPES, 2 mM L-glutamine, puromycin (10 μg/mL for Rat-1_PI3Kdelta and Rat-1_PI3Kalpha, 4 ug/mL for Rat-1_PI3beta), 1% (v/v) Pen/Strep) to 90% confluency at 37° C./5% CO2/90% humidity in a humidified CO2 incubator and were split twice a week.
The following materials were used for p-AKT(S473) detection in Rat-1 cell lysates: Dulbecco's modified Eagle's medium (DMEM) high glucose (Gibco Invitrogen, Basel, Switzerland, Cat. No. 41965), Heat Inactivated Fetal Bovine Serum, Qualified (HI FBS; Gibco Invitrogen, Basel, Switzerland, Lot. No. 16140), MEM non essential amino acids (NEAA; Gibco Invitrogen, Basel, Switzerland, Cat. No. 11140), HEPES (Gibco Invitrogen, Basel, Switzerland, Cat. No. 15630), Penicillin/Streptomycin (Pen/Strep, 100×; Gibco Invitrogen, Basel, Switzerland, Cat. No. 15140-122), L-Glutamine (Gibco Invitrogen, Basel, Switzerland, Cat. No. 25030), Puromycin (Sigma Aldrich, Buchs, Switzerland, Cat. No. P9620), DMSO (MERCK, Dietikon, Switzerland, Cat. No. 8.02912.2500), H2O, MilliQ-H2O unless otherwise stated (MILLIPORE QGARDOOR1, Millipore, Zug, Switzerland), Bovine serum albumine (BSA; Sigma Aldrich, Buchs, Switzerland Cat. No. A8412), SureFire p-Akt 1/2 (Ser473) Assay Kit (PerkinElmer, Schwerzenbach, Switzerland, Cat. No. TGRAS50K).
The p-Akt(S473) SureFire assay measures the phosphorylation of endogenous cellular Akt 1/2 at Ser473 in cell lysates. Using Rat-1 cells stably expressing myr-HA-tagged versions of the human PI3Kdelta, PI3Kalpha, or PI3Kbeta p110 catalytic subunit isoforms, the assay was developed as a two-plate protocol in a 384-well format.

[2] = tested on: A2058 cells; assay: Cell cycle G2/M arrest Cytospin assay to detect tubulin binding (off-target); format: cell-based; design: key: 0=no condensed DNA observed (indicating no off target activity); 1=(indicating weak off target activity); 2=(indicating medium off target activity); 3=large amount of condensed DNA observed (indicating strong off-target activity); settings: 5 μM test item, 24 hours
Method: The off-target effect (evidence of tubulin binding) was measured as follows.
Cell cycle G2/M arrest Cytospin assay to detect tubulin binding (off-target) binding activities of MAPP derivatives: 5×10^5 cells A2058 cells were plated in 6-well cluster, with 2 mL of DMEM (high Glucose containing 1% sodium pyruvate, 1% glutamin and 10% FCS). 18 hours later, the test items were added at a concentration of 5 μM (spiking 1 μL of a 10 mM solution of the test item). 24 hours later, the cells were trypsinized and transferred into a 15 mL conical tube. Cells are then pelleted by centrifugation, and resuspended with PBS/0 (containing 10% FCS). Cells are counted with a CASY counter, and each samples equilibrated to 1×10^6 cells/mL. […] The staining was visually assessed for the presence of condensed DNA and given a score where 0=no condensed DNA observed (indicating no off target activity), 1=(indicating weak off target activity), 2=(indicating medium off target activity), 3=large amount of condensed DNA observed (indicating strong off-target activity).

T1 sequence (P42336 whole entry): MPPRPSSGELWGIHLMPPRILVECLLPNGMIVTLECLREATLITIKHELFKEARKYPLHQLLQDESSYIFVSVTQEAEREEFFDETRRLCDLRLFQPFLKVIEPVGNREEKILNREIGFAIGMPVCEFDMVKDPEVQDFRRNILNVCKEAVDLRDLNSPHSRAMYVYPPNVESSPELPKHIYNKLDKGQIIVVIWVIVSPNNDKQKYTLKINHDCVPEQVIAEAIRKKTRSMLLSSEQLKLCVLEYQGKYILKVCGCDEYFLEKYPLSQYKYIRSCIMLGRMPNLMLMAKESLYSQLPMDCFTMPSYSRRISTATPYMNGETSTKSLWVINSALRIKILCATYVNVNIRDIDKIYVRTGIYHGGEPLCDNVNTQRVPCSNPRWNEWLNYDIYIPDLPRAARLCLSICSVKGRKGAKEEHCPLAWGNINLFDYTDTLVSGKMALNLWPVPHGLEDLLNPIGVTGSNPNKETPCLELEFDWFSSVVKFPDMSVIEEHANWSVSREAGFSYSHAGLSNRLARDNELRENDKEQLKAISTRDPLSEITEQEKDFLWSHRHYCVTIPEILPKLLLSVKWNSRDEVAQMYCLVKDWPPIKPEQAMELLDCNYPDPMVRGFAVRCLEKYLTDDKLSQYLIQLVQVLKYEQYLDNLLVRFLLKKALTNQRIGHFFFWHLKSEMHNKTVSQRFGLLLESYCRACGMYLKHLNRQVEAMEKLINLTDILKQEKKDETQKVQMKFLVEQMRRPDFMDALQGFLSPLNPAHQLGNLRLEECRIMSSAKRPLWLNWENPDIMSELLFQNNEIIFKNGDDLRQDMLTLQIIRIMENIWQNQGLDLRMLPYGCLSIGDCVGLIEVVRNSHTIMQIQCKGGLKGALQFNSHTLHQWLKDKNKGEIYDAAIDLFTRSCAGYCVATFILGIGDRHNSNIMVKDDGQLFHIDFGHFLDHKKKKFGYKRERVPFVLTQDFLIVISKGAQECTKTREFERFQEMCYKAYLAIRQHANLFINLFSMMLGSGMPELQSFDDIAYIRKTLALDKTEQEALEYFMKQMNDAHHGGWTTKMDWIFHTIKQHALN
T1 sequence (Q63787 whole entry partner): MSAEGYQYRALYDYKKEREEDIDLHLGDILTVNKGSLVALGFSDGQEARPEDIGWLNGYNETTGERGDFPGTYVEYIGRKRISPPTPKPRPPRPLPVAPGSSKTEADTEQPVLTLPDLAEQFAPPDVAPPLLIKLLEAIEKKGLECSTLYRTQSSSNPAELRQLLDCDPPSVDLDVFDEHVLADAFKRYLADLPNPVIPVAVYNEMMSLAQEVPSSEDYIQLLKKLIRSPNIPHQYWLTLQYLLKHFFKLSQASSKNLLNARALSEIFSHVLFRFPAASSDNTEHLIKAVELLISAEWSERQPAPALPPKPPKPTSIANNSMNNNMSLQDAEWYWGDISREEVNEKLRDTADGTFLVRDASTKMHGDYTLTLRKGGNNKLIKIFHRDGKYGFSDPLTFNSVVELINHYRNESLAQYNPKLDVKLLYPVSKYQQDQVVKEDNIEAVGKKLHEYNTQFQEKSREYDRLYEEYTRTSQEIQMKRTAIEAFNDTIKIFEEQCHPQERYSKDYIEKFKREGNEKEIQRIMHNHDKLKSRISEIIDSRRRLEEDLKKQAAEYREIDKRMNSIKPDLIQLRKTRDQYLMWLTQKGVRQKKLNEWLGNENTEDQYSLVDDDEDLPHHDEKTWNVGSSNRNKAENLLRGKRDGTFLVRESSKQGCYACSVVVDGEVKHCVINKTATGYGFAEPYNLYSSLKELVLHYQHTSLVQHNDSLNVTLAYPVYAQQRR

| SMILES | IC50 [1] | Score (condensed DNA, G2/M arrest; off-target tubulin binding) [2] |
| --- | --- | --- |
| C[C@H]1CN(c2cc(-c3cnc(N)nc3C(F)(F)F)nc(N3CCOCC3)n2)C(=O)O1 [Example 16, (S)-3-(2′-Amino-2-morpholin-4-yl-4′-trifluoromethyl-[4,5′]bipyrimidinyl-6-yl)-5-methyl-oxazolidin-2-one] | 108 nM | 0 |
| [2H]C1([2H])OC([2H])([2H])C([2H])([2H])N(c2nc(-c3cnc(N)nc3C(F)(F)F)cc(N3C(=O)OC[C@@H]3C)n2)C1([2H])[2H] [Example 17, (S)-3-(2′-amino-2-D8-morpholino-4′-(trifluoromethyl)-[4,5′-bipyrimidin]-6-yl)-4-methyloxazolidin-2-one] | 178 nM | 0 |
| Nc1ncc(-c2cc(N3C[C@H](CO)OC3=O)nc(N3CCOCC3)n2)c(C(F)(F)F)n1 [Example 20, (R)-3-(2′-Amino-2-morpholin-4-yl-4′-trifluoromethyl-[4,5′]bipyrimidinyl-6-yl)-5-hydroxymethyl-oxazolidin-2-one] | 158 nM | 1-2 |

Compounds with a lower IC50 [1], results first:

| IC50 [1] | Score (condensed DNA, G2/M arrest; off-target tubulin binding) [2] | SMILES |
| --- | --- | --- |
| 85 nM | 0 | Nc1ncc(-c2cc(N3C(=O)O[C@H]4COC[C@H]43)nc(N3CCOCC3)n2)c(C(F)(F)F)n1 [Example 21, (3aR,6aR)-3-(2′-amino-2-morpholino-4′-(trifluoromethyl)-[4,5′-bipyrimidin]-6-yl)-tetrahydrofuro[3,4-d]oxazol-2(3H)-one] |
| 79 nM | 0 | C[C@H]1[C@H](CO)OC(=O)N1c1cc(-c2cnc(N)nc2C(F)(F)F)nc(N2CCOCC2)n1 [Example 15, (4S,5R)-3-(2′-Amino-2-morpholin-4-yl-4′-trifluoromethyl-[4,5′]bipyrimidinyl-6-yl)-5-hydroxymethyl-4-methyl-oxazolidin-2-one] |
| 50 nM | 0 | C[C@H]1[C@@H](CO)OC(=O)N1c1cc(-c2cnc(N)nc2C(F)(F)F)nc(N2CCOCC2)n1 [Example 19, (4S,5S)-3-(2′-Amino-2-morpholin-4-yl-4′-trifluoromethyl-[4,5′]bipyrimidinyl-6-yl)-5-hydroxymethyl-4-methyl-oxazolidin-2-one] |
| 38 nM | 0 | C[C@H]1OC(=O)N(c2cc(-c3cnc(N)nc3C(F)(F)F)nc(N3CCOCC3)n2)[C@H]1CO [Example 18, (4S,5R)-3-(2′-Amino-2-morpholin-4-yl-4′-trifluoromethyl-[4,5′]bipyrimidinyl-6-yl)-4-hydroxymethyl-5-methyl-oxazolidin-2-one] |
| 20 nM | 0 | C[C@H]1[C@@H](CCO)OC(=O)N1c1cc(-c2cnc(N)nc2C(F)(F)F)nc(N2CCOCC2)n1 [Example 23, (4S,5R)-3-(2′-Amino-2-morpholino-4′-(trifluoromethyl)-[4,5′-bipyrimidin]-6-yl)-5-(2-hydroxyethyl)-4-methyloxazolidin-2-one] |
